Results: patent US20160219829A1, “ANTI-ODOR MATERIAL FOR ANIMAL LITTERS USING PHOSPHOROTRIAMIDES IN POWDER FORM” (priority 2013, published 2016)

Biological target: T1, urease (Canavalia ensiformis, UniProt P07374)
T1 construct: purchased Sigma
Format: biochemical
Protocol: To simulate soiled anti-odor material, urea/urease solution was prepared and added to the anti-odor material.
In the same beaker, weight 50 g of demineralised water.
In a small plastic cup, weight 0.012 g of urease. Then empty the plastic cup in the beaker containing the water and rinse it with the water/urea solution.
Fill a standard volume with anti-odor material (litter+n-BTPT powder) and equalize the surface. Empty the standard volume in a plastic bowl used for analysis.
Empty slowly the urea/urease solution on the anti-odor material while making sure that no solution comes in contact with sides of the plastic bowl.
Put a cover on the plastic bowl (the cover having a hole).
Insert the tube of a Gastec pump (GV-100S) in the hole of the cover.
Note the start time of the test and take a reading of the tube every 30 minutes for the first 7 hours.
Take a reading at 24 and 48 hour.
Dosimetry tests were performed according to the methodology above. The results were taken after 48 h of testing.
Dosimetry tests were then realised to evaluate the performance of the litter samples by measuring the ammonia release (in ppm). More particularly, performances of the odor-retardant material with n-BTPT in a powder form, in melted phase or coating a particulate support could be evaluated.

T1 sequence (P07374 whole entry, looked up): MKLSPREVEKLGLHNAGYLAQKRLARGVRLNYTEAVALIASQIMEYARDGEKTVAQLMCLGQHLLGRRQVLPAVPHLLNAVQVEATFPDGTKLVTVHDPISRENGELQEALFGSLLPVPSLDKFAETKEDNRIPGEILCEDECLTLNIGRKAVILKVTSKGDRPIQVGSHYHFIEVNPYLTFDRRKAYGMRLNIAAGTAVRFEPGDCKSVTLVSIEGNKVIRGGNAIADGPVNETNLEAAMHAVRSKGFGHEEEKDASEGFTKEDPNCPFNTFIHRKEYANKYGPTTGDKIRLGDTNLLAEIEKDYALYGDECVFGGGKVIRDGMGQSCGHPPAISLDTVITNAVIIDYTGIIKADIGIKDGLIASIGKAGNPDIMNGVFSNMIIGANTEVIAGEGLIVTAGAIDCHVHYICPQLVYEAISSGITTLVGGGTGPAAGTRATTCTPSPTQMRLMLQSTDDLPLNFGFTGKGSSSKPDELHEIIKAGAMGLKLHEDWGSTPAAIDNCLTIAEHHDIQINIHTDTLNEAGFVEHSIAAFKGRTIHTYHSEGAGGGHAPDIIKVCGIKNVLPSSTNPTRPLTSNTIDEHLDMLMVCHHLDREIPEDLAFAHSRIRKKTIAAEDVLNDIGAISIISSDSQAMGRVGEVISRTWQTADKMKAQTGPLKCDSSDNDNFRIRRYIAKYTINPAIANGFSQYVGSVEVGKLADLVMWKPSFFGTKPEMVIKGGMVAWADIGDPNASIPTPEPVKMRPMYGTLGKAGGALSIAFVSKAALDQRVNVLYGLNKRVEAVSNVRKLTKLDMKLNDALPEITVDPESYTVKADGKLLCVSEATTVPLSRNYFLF

CCCCNP(N)(N)=S [n-BTPT, N-(n-butyl)thiophosphoric triamide]
Ammonia release (48 h) (final concentration 350 g/MT n-BTPT in litter, bentonite absorptive substrate): 25 ppm
ammonia release reaches a maximum (FIG. 1) (n-BTPT concentration of 0.03%, grinded powder in litter, 48 h): 62%
